Test results taken from patent publication US9669003B2, “Use of flavone and flavanone derivatives in preparation of sedative and hypnotic drugs” (priority 2012, dated 2017).
Marks after values point to notes of the source that are not given here.

How the values were obtained:
Format in all cases: in vivo
Kunming mice [1] = test: Influence on autonomic activity of normal mice (ZIL-2 mice autonomic activity meter, counts within 10 min); conditions: intragastric, x ± s, n = 10; for Times of activities in 1 h after drug administration/10 min: 1 h after administration; for Times of activities in 2 h after drug administration/10 min: 2 h after administration; for Times of activities in 24 h after drug administration/10 min: 24 h after administration
Excerpt: (§1) 1.1 Animals for experiments: Kunming mice, weighting 18.9˜22.2 g for females, and 20.2˜23.0 g for males, licensed under SCXK-(Ji) 2007-0003, and provided by The experimental animal centre, Jilin University.
(§2) 1.2 Chemicals for experiments: The flavone derivatives provided in Examples 1-41 and the flavanone derivatives provided in Examples 42-71 are all formulated with 0.5% sodium carboxymethyl cellulose as solutions with required concentrations.
(§3) 1.3 Grouping of animals: 6420 animals are employed in the entire experiments and 2140 of the animals are randomly divided into 214 groups by gender, and the […] include: control group, low dosage group for each experimental drugs (25 mg/kg), medium dosage group for each experimental drugs (50 mg/kg), and high dosage group for each experimental drugs (100 mg/kg). Each group has 10 animals and either female or male constitutes half of the group. The groups are used in behavior observation and voluntary action observation. The other 4280 animals are randomly divided into 214 groups by gender respectively (the grouping way is the same with that described above). Each group has 20 animals and either female or male constitutes half of the group. In each group, 10 animals are used in hypnosis experimentations with pentobarbital sodium doses below the threshold, and the other 10 animals are used hypnosis experimentations with pentobarbital sodium doses at the threshold.
1.4 Experimental instrument and agents: ZIL-2 mice autonomic activity meter, production of Institute of Materia Medica of Chinese Academy of Medical Sciences; pentobarbital sodium, Lot: 100808, 25 g/bottle, Beijing Chemical Reagent Company equipment imported from Germany.
1.5.2 Influence on Autonomic Activity of Normal Mice
After observing the general behavior, in 1 h, 2 h and 24 h after drug administration, respectively, ZIL-2 mice autonomic activity meter is put respectively. Number of autonomic activities of each group of mice is measured within 10 min. Results among groups are compared.
(§4) Number of autonomic activities is detected by leneve Test for homogeneity of variance. If the homogeneity of variance is good (P>0.05), statistical analysis is performed with ANOVA. If ANOVA have statistical significance (P≦0.05), Dunnett's test for multiple comparisons analysis is performed. Number of animals of sleeping mice is applied of ANOVA. Incidence rate of animal asleep is applied of χ2 test. Sleep latency and sleep duration are recorded in min, averaged by group, represented by standard deviation, and undergo statistical analysis using ANOVA.

Kunming mice [2] = test: Influence on hypnosis effect with pentobarbital sodium doses below the threshold (25 mg/kg i.p.); conditions: pentobarbital sodium 25 mg/kg i.p. 60 min later, sleep observed in 30 min, n = 10
Excerpt: as §1, §2, §3
1.5.3 Influence on Hypnosis Effect with Mice Pentobarbital Sodium Doses Below the Threshold
(§5) The drug is intragastric administered in mice for single time, 2 animals of each group are given drug per round with the dosing interval of 40 min (±5 min). According to the administration round, in 60 min (±5 min) of each round after the drug administration, the animals were intraperitoneally injected 0.3% sodium pentobarbital 25 mg/kg, respectively. Sleep condition of the animals were observed within 30 min (under sleep determination standard of loss of righting reflex more than 1 min). After animals undergo loss of righting reflex, number of the animals is recorded, to calculate sleep percentage.
as §4

Kunming mice [3] = test: Influence on hypnosis effect with pentobarbital sodium doses at the threshold (50 mg/kg i.p.); conditions: pentobarbital sodium 50 mg/kg i.p. 60 min later, x ± s, n = 10
Excerpt: as §1, §2, §3
1.5.4 Influence on Hypnosis Effect with Mice Pentobarbital Sodium Doses at the Threshold
as §5, with “50” for “25”, “Time to fall asleep (sleep latency) and sleep duration” for “Sleep condition”, “recorded” for “observed”, “under” for “30 min (under”, “min.” for “min). After animals undergo loss of righting reflex, number of the animals is recorded, to calculate sleep percentage.”
as §4

[4] = test drug 25 mg/kg intragastric single dose
[5] = test drug 50 mg/kg intragastric single dose
[6] = test drug 100 mg/kg intragastric single dose
[7] = 25 mg/kg intragastric single dose
[8] = 50 mg/kg intragastric single dose
[9] = 100 mg/kg intragastric single dose

Row | Compound | Times of activities in 1 h after drug administration/10 min (Kunming mice [1]; 25 mg/kg) | Times of activities in 2 h after drug administration/10 min (Kunming mice [1]; 25 mg/kg) | Times of activities in 24 h after drug administration/10 min (Kunming mice [1]; 25 mg/kg) | Times of activities in 1 h after drug administration/10 min (Kunming mice [1]; 50 mg/kg) | Times of activities in 2 h after drug administration/10 min (Kunming mice [1]; 50 mg/kg) | Times of activities in 24 h after drug administration/10 min (Kunming mice [1]; 50 mg/kg) | Times of activities in 1 h after drug administration/10 min (Kunming mice [1]; 100 mg/kg) | Times of activities in 2 h after drug administration/10 min (Kunming mice [1]; 100 mg/kg) | Times of activities in 24 h after drug administration/10 min (Kunming mice [1]; 100 mg/kg) | Number of sleeping animals (Kunming mice [2]; [4]) | rate of sleeping (%) (Kunming mice [2]; [4]) | Number of sleeping animals (Kunming mice [2]; [5]) | rate of sleeping (%) (Kunming mice [2]; [5]) | Number of sleeping animals (Kunming mice [2]; [6]) | rate of sleeping (%) (Kunming mice [2]; [6]) | duration of sleep (Kunming mice [3]; [7]) [min] | time to sleep (Kunming mice [3]; [7]) [min] | duration of sleep (Kunming mice [3]; [8]) [min] | time to sleep (Kunming mice [3]; [8]) [min] | duration of sleep (Kunming mice [3]; [9]) [min] | also measured
1 | 6,7,8,4′-tetramethoxyl-flavone [Example 6] | 330.1 ± 51.2 /10 min | 314.5 ± 56.7 /10 min | 338.1 ± 96.3 /10 min | 286.7 ± 61.7 /10 min | 279.5 ± 48.2 /10 min | 311.5 ± 91.5 /10 min | 238.3 ± 36.3 /10 min | 249.8 ± 45.8 /10 min | 308.2 ± 82.7 /10 min | 3 | 30% | 5 | 50** % | 6 | 60** % | 29.81 ± 21.65 | 5.51 ± 1.39 | 47.21 ± 22.93 | 4.20 ± 1.40 | 55.33 ± 19.32 | time to sleep (Kunming mice [3]; [9]): 3.91 ± 2.16 min
2 | COc1cc(OC)c2c(=O)cc(-c3cc(OC)c(OC)c(OC)c3)oc2c1 [Example 1, 5,7,3′,4′,5′-penta methoxyl-flavone] | 215.3 ± 40.1 /10 min | 211.2 ± 36.3 /10 min | 274.4 ± 81.2 /10 min | 137.1 ± 52.3 /10 min | 168.5 ± 57.9 /10 min | 275.2 ± 79.3 /10 min | 98.2 ± 41.9 /10 min | 96.2 ± 55.7 /10 min | 301.2 ± 80.7 /10 min | 5 | 50** % | 7 | 70** % | 10 | 100*** % | 65.42 ± 27.30 | 3.84 ± 1.65 | 78.60 ± 14.67 | 3.54 ± 1.44 | 98.33 ± 21.63 | time to sleep (Kunming mice [3]; [9]): 2.75 ± 1.62 min
3 | COc1ccc(-c2cc(=O)c3c(O)cc(OC)c(OC)c3o2)cc1O [Example 2, 5,3′-dihydroxyl-7,8,4′-trimethoxyl-flavone] | 320.1 ± 54.7 /10 min | 293.5 ± 40.8 /10 min | 302.7 ± 77.5 /10 min | 295.3 ± 41.8 /10 min | 254.2 ± 41.1 /10 min | 306.2 ± 90.6 /10 min | 281.3 ± 47.6 /10 min | 223.5 ± 45.7 /10 min | 311.4 ± 80.3 /10 min | 5 | 50** % | 6 | 60** % | 7 | 70** % | 35.56 ± 15.89 | 6.61 ± 2.22 | 39.23 ± 23.45 | 4.95 ± 2.23 | 53.55 ± 22.04 | time to sleep (Kunming mice [3]; [9]): 3.92 ± 1.12 min
4 | COc1cc(OC)c2c(=O)cc(-c3ccccc3O)oc2c1OC [Example 3, 2′-hydroxyl-5,7,8-trimethoxyl-flavone] | 283.4 ± 45.8 /10 min | 264.7 ± 46.1 /10 min | 305.8 ± 80.9 /10 min | 236.2 ± 41.5 /10 min | 246.3 ± 49.1 /10 min | 298.8 ± 71.0 /10 min | 180.5 ± 35.3 /10 min | 174.7 ± 40.5 /10 min | 286.9 ± 90.4 /10 min | 3 | 30% | 4 | 40* % | 6 | 60** % | 39.65 ± 18.32 | 4.41 ± 1.43 | 56.76 ± 24.86 | 3.90 ± 1.93 | 59.76 ± 25.75 | time to sleep (Kunming mice [3]; [9]): 3.86 ± 1.22 min
5 | COc1cc(OC)c2c(=O)cc(-c3ccc(OC)c(O)c3)oc2c1 [Example 4, 3′-hydroxyl-5,7,4′-trimethoxyl-flavone] | 258.2 ± 44.2 /10 min | 250.3 ± 53.9 /10 min | 309.1 ± 76.1 /10 min | 219.3 ± 42.7 /10 min | 223.5 ± 41.3 /10 min | 318.4 ± 96.3 /10 min | 124.2 ± 49.1 /10 min | 127.2 ± 41.9 /10 min | 303.2 ± 90.1 /10 min | 6 | 60** % | 7 | 70** % | 8 | 80*** % | 63.65 ± 19.54 | 3.75 ± 1.81 | 69.91 ± 19.82 | 3.41 ± 1.69 | 81.66 ± 30.31 | time to sleep (Kunming mice [3]; [9]): 2.51 ± 1.61 min
